# ChEMBL document CHEMBL3865781, “Recent advances in the discovery and development of antibacterial agents targeting the cell-division protein FtsZ” (Bioorg Med Chem, 2016)
# Assays:
# [1] = test system: Mycobacterium tuberculosis; test: Antibacterial activity against Mycobacterium tuberculosis W210 clinical isolates measured every 24 hrs for 7 days by MABA assay; assay type: functional
# [2] = test system: Mycobacterium tuberculosis; test: Antibacterial activity against Mycobacterium tuberculosis NHN382 clinical isolates measured every 24 hrs for 7 days by MABA assay; assay type: functional
# [3] = test system: Mycobacterium tuberculosis; test: Antibacterial activity against Mycobacterium tuberculosis H37Rv measured every 24 hrs for 7 days by MABA assay; assay type: functional
# [4] = test system: Mycobacterium tuberculosis; test: In vivo antibacterial activity against Mycobacterium tuberculosis H37Rv infected in C57BL/6 GKO-mouse assessed as reduction in bacterial load in lungs at 150 mg/kg, ip qd on day 12 post infection for 9 consecutive days; assay type: functional
# [5] = test system: Mycobacterium tuberculosis; test: Antibacterial activity against Mycobacterium tuberculosis TN587 clinical isolates measured every 24 hrs for 7 days by MABA assay; assay type: functional
# [6] = test system: Mycobacterium tuberculosis; test: In vivo antibacterial activity against Mycobacterium tuberculosis H37Rv infected in C57BL/6 GKO-mouse assessed as reduction in bacterial load in spleens at 150 mg/kg, ip qd on day 12 post infection for 9 consecutive days; assay type: functional
# Escherichia coli [7] = test: Antibacterial activity against Escherichia coli ATCC 25922 after 18 hrs by broth microdilution method; assay type: functional; settings: ATCC 25922, 18 h
# Staphylococcus aureus [8] = test: Antibacterial activity against methicillin-resistant Staphylococcus aureus ATCC BAA-41 after 18 hrs by broth microdilution method; assay type: functional; settings: ATCC BAA-41, 18 h
# Enterococcus faecalis [9] = test: Antimicrobial activity against vancomycin-sensitive Enterococcus faecalis after 18 hrs by broth microdilution method; assay type: functional
# Escherichia coli [10] = test: Antibacterial activity against Escherichia coli by broth dilution method; assay type: functional
# Klebsiella pneumoniae = test: Antibacterial activity against Klebsiella pneumoniae ATCC BAA-1144 after 18 hrs by broth microdilution method; assay type: functional; settings: ATCC BAA-1144, 18 h
# Staphylococcus aureus [11] = test: Antibacterial activity against methicillin-resistant Staphylococcus aureus by broth dilution method; assay type: functional
# Enterococcus faecalis [12] = test: Antimicrobial activity against vancomycin-resistant Enterococcus faecalis after 18 hrs by broth microdilution method; assay type: functional
# Bacillus subtilis [13] = test: Antibacterial activity against Bacillus subtilis by broth dilution method; assay type: functional
# Staphylococcus aureus [14] = test: Antibacterial activity against methicillin-sensitive Staphylococcus aureus after 18 hrs by broth microdilution method; assay type: functional
# Staphylococcus aureus [15] = test: In vivo antibacterial activity against methicillin-resistant Staphylococcus aureus ATCC 33591 infected in ICR(CD-1) mouse thigh infection model assessed as reduction in colony forming units in thigh muscle at 120 to 160 mg/kg, po measured 24 hrs post infection; assay type: functional
# Bacillus subtilis [16] = test: Inhibition of Bacillus subtilis FtsZ polymerization expressed in Escherichia coli BL21(DE3) pLysS at 10 uM preincubated for 15 mins followed by GTP addition by spectrofluorometric analysis relative to control
# Bacillus subtilis [17] = test: Inhibition of Bacillus subtilis FtsZ GTPase activity expressed in Escherichia coli BL21(DE3) pLysS at 24 uM preincubated for 15 mins followed by GTP addition after 10 mins by malachite green ammonium molybdate assay relative to control
# Bacillus subtilis [18] = test: Inhibition of Bacillus subtilis FtsZ polymerization expressed in Escherichia coli BL21(DE3) pLysS at 5 uM preincubated for 15 mins followed by GTP addition by spectrofluorometric analysis relative to control
# Bacillus subtilis [19] = test: Inhibition of Bacillus subtilis FtsZ polymerization expressed in Escherichia coli BL21(DE3) pLysS at 2 uM preincubated for 15 mins followed by GTP addition by spectrofluorometric analysis relative to control
# [20] = test system: Mycobacterium tuberculosis; test: Antibacterial activity against Mycobacterium tuberculosis NHN20 clinical isolates measured every 24 hrs for 7 days by MABA assay; assay type: functional
# [21] = test system: Mycobacterium tuberculosis; test: In vivo antibacterial activity against Mycobacterium tuberculosis H37Rv infected in GKO-TB mouse assessed as reduction in bacterial load in lungs at 50 mg/kg, ip or po bid for 10 consecutive days; assay type: functional
# [22] = target: T1, Cell division protein FtsZ (Staphylococcus aureus, UniProt P0A031); test: Inhibition of Staphylococcus aureus N-terminal His6-tagged FtsZ GTPase activity expressed in Escherichia coli BL21(DE3) preincubated for 10 mins followed by GTP addition after 30 mins by cytophos phosphate assay
# T1 sequence (P0A031 whole entry): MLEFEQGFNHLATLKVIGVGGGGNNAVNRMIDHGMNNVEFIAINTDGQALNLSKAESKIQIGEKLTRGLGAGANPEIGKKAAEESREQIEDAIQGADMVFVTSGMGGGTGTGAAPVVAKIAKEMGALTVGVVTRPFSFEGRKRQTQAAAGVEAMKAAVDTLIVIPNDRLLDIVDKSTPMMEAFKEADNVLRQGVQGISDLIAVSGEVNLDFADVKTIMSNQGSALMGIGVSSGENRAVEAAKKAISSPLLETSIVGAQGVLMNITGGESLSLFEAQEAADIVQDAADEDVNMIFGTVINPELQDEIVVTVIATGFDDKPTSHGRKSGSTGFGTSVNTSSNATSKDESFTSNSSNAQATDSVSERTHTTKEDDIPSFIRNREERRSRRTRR
# Bacillus subtilis [23] = test: Antibacterial activity against Bacillus subtilis after 4 hrs; assay type: functional
# [24] = test system: Mycolicibacterium smegmatis; test: Antibacterial activity against Mycobacterium smegmatis after 4 hrs; assay type: functional
# Escherichia coli [25] = test: Antibacterial activity against Escherichia coli K12 MG1655 after 4 hrs; assay type: functional; settings: K-12 substr. MG1655, 4 h
# Bacillus subtilis [26] = test: Antibacterial activity against Bacillus subtilis 168 harboring trpC2 after 4 hrs; assay type: functional; settings: subsp. subtilis str. 168, 4 h
# [27] = test system: Mycobacterium tuberculosis; test: In vivo antibacterial activity against Mycobacterium tuberculosis str. Erdman infected in C57BL/6 mouse assessed as reduction in bacterial load in spleens at 50 mg/kg, ip bid on day 5 to 14 post infection measured on day 15 post infection; assay type: functional, Erdman = ATCC 35801
# Staphylococcus aureus [28] = test: Antibacterial activity against methicillin-sensitive Staphylococcus aureus after 16 to 24 hrs by microdilution method; assay type: functional
# Staphylococcus aureus [29] = test: Antibacterial activity against methicillin-resistant Staphylococcus aureus after 16 to 24 hrs by microdilution method; assay type: functional
# Staphylococcus aureus [30] = test: Antibacterial activity against vancomycin-resistant Staphylococcus aureus isolates after 16 to 24 hrs by microdilution method; assay type: functional
# Staphylococcus aureus [31] = test: Antibacterial activity against Daptomycin-nonsusceptible Staphylococcus aureus isolates after 16 to 24 hrs by microdilution method; assay type: functional
# Staphylococcus aureus [32] = test: Antibacterial activity against vancomycin-intermediate Staphylococcus aureus isolates after 16 to 24 hrs by microdilution method; assay type: functional
# [33] = Half life in iv dosed BALB/c mouse administered 1 hr after ABT addition by LC-MS/MS analysis; assay type: ADME, organism-based; settings: in vivo
# Staphylococcus aureus [34] = test: Antibacterial activity against linezolid-nonsusceptible Staphylococcus aureus isolates after 16 to 24 hrs by microdilution method; assay type: functional
# [35] = target: T2, Cell division protein FtsZ (Escherichia coli K-12, UniProt P0A9A6); test: Inhibition of recombinant Escherichia coli K12 FtsZ assembly by light-scattering assay
# T2 sequence (P0A9A6 whole entry): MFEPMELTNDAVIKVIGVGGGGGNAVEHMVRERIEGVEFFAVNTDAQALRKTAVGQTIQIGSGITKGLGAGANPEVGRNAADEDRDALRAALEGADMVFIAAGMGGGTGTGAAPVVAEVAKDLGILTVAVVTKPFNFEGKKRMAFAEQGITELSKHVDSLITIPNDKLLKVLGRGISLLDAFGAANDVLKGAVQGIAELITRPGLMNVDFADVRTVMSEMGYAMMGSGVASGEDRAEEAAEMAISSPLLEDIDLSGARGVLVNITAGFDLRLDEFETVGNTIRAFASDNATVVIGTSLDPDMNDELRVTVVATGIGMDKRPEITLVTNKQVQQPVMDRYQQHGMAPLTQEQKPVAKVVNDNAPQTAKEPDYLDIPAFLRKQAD
# [36] = target: T2, Cell division protein FtsZ; test: Inhibition of recombinant Escherichia coli K12 FtsZ GTPase activity by malachite green sodium molybdate assay
# Staphylococcus aureus [37] = test: Antibacterial activity against methicillin-resistant Staphylococcus aureus; assay type: functional
# [38] = Toxicity in mouse infected with Staphylococcus aureus assessed as survival at 30 mg/kg, iv or po; assay type: organism-based; settings: in vivo
# Staphylococcus aureus [39] = test: Antibacterial activity against multi-drug resistant Staphylococcus aureus; assay type: functional
# Bacillus subtilis [40] = test: Antibacterial activity against Bacillus subtilis; assay type: functional
# Salmonella typhimurium = test: Antibacterial activity against Salmonella typhimurium; assay type: functional, Salmonella enterica subsp. enterica serovar Typhimurium; settings: Salmonella enterica
# Priestia megaterium = test: Antibacterial against Bacillus megaterium; assay type: functional
# Staphylococcus aureus [41] = test: Antibacterial against methicillin-resistant Staphylococcus aureus; assay type: functional
# Escherichia coli [42] = test: Antibacterial activity against Escherichia coli; assay type: functional
# Bacillus subtilis [43] = test: Antibacterial activity against Bacillus subtilis 168 after 12 hrs by agar dilution assay; assay type: functional; settings: subsp. subtilis str. 168, 12 h
# [44] = test system: Mycolicibacterium smegmatis; test: Antibacterial activity against Mycobacterium smegmatis after 12 hrs by agar dilution assay; assay type: functional
molecule,measurement,setting,value
CCCCOC(=O)Nc1cc2nc(C3CCCCC3)[nH]c2cc1N(CC)CC,MIC99,[1],1.25 µg/mL
same,MIC99,[2],1.25 µg/mL
same,MIC99,[3],0.63 µg/mL
same,Activity,[4],0.41 log10CFU
same,MIC99,[5],1.25 µg/mL
same,Activity,[6],0.7 log10CFU
O=C/C=C/c1ccccc1 [CINNAMALDEHYDE],MIC,Escherichia coli [7],32 to 128 µg/mL
same,MIC,Staphylococcus aureus [8],2 to 8 µg/mL
same,MIC,Enterococcus faecalis [9],4 to 16 µg/mL
same,MIC,Escherichia coli [10],0.1 µg/mL
same,MIC,Klebsiella pneumoniae,32 to 128 µg/mL
same,MIC,Staphylococcus aureus [11],0.25 µg/mL
same,MIC,Enterococcus faecalis [12],4 to 16 µg/mL
same,MIC,Bacillus subtilis [13],0.5 µg/mL
same,MIC,Staphylococcus aureus [14],2 to 8 µg/mL
CN1CCC(C(=O)NC(=O)c2c(F)ccc(OCc3nc4cc(C(F)(F)F)cnc4s3)c2F)CC1,Activity,Staphylococcus aureus [15],2 log10CFU
CC1=CC(=O)c2c(O)cccc2C1=O [PLUMBAGIN],MIC,Escherichia coli [7],32 to 128 µg/mL
same,MIC,Staphylococcus aureus [8],2 to 8 µg/mL
same,MIC,Enterococcus faecalis [9],4 to 16 µg/mL
same,inhibition,Bacillus subtilis [16],45%
same,inhibition,Bacillus subtilis [17],58%
same,MIC,Klebsiella pneumoniae,32 to 128 µg/mL
same,inhibition,Bacillus subtilis [18],33%
same,inhibition,Bacillus subtilis [19],26%
same,MIC,Enterococcus faecalis [12],4 to 16 µg/mL
same,MIC,Staphylococcus aureus [14],2 to 8 µg/mL
CN(C)c1cc2[nH]c(C3CCCCC3)nc2cc1NC(=O)c1ccc(OC(F)(F)F)c(F)c1F,MIC99,[20],0.39 µg/mL
same,MIC99,[1],0.47 µg/mL
same,MIC99,[2],0.37 µg/mL
same,MIC99,[3],0.39 µg/mL
same,MIC99,[5],0.31 µg/mL
same,Activity,[21],2.5 - 3.4 log10CFU
COc1ccc2cc3[n+](cc2c1OCCCOc1ccc(Cl)cc1)CCc1cc2c(cc1-3)OCO2.[Br-],MIC,Escherichia coli [7],32 to 128 µg/mL
same,MIC,Staphylococcus aureus [8],2 to 8 µg/mL
same,MIC,Enterococcus faecalis [9],4 to 16 µg/mL
same,MIC,Klebsiella pneumoniae,32 to 128 µg/mL
same,IC50,[22],66.6 µM
same,MIC,Staphylococcus aureus [14],2 to 8 µg/mL
CCC(C)c1ccc(NC(=O)c2cccc3[nH]c(-c4cccs4)nc23)cc1 (configuration not stated),IC50,Bacillus subtilis [23],1 µM
same,IC50,[24],1.6 µM
COc1cc(/C=C/C(=O)CC(=O)/C=C/c2ccc(O)c(OC)c2)ccc1O [CURCUMIN],MIC,Escherichia coli [7],32 to 128 µg/mL
same,IC50,Escherichia coli [25],58 µM
same,MIC,Staphylococcus aureus [8],2 to 8 µg/mL
same,MIC,Enterococcus faecalis [9],4 to 16 µg/mL
same,IC50,Bacillus subtilis [26],17 µM
same,MIC,Klebsiella pneumoniae,32 to 128 µg/mL
same,MIC,Staphylococcus aureus [14],2 to 8 µg/mL
CN(C)c1cc2[nH]c(C3CCCCC3)nc2cc1NC(=O)c1ccc(OC(F)(F)F)cc1,MIC99,[1],0.16 µg/mL
same,MIC99,[2],0.16 µg/mL
same,MIC99,[3],0.16 µg/mL
same,Activity,[27],2.68 log10CFU
same,MIC99,[5],0.16 µg/mL
NC(=O)c1c(F)ccc(OCc2nc3cc(C(F)(F)F)cnc3s2)c1F,MIC,Staphylococcus aureus [28],1 µg/mL
same,MIC,Staphylococcus aureus [29],1 µg/mL
same,MIC,Staphylococcus aureus [30],1 µg/mL
same,MIC,Staphylococcus aureus [31],1 µg/mL
same,MIC,Staphylococcus aureus [32],1 µg/mL
same,half-life,[33],3.65 h
same,MIC,Staphylococcus aureus [34],1 µg/mL
COc1ccc2cc3[n+](cc2c1OC)CCc1cc2c(cc1-3)OCO2.[Cl-] [BERBERINE CHLORIDE],MIC,Escherichia coli [7],32 to 128 µg/mL
same,IC50,[35],10 µM
same,MIC,Staphylococcus aureus [8],2 to 8 µg/mL
same,MIC,Enterococcus faecalis [9],4 to 16 µg/mL
same,IC50,[36],16 µM
same,MIC,Klebsiella pneumoniae,32 to 128 µg/mL
same,MIC,Staphylococcus aureus [14],2 to 8 µg/mL
NC(=O)c1c(F)ccc(OCc2nc3cc(Cl)cnc3s2)c1F,half-life,[33],0.56 h
same,MIC,Staphylococcus aureus [37],0.5 to 1 µg/mL
same,survival,[38],100%
same,MIC,Staphylococcus aureus [39],0.5 to 1 µg/mL
same,MIC,Bacillus subtilis [40],0.5 to 1 µg/mL
H-GLLRKGGEKIGEKLKKIGQKIKNFFQKLVPQPEQ-OH,MIC,Salmonella typhimurium,0.5 to 64 µM
same,MIC,Priestia megaterium,0.5 to 64 µM
same,MIC,Staphylococcus aureus [41],0.5 to 64 µM
same,MIC,Escherichia coli [42],0.5 to 64 µM
CC(=O)O[C@@]12CO[C@@H]1C[C@H](O)[C@@]1(C)C(=O)C(=O)C3=C(C)[C@@H](OC(=O)/C=C/c4ccc5ccccc5c4)C[C@@](O)([C@@H](OC(=O)c4ccccc4)[C@H]21)C3(C)C,MIC,Bacillus subtilis [43],30 µM
same,MIC,[44],60 µM
